According to ChEMBL document CHEMBL3621096, “Discovery of Potent and Selective Inhibitors for ADAMTS-4 through DNA-Encoded Library Technology (ELT)” (ACS Med Chem Lett, 2015):

target: Disintegrin and metalloproteinase domain-containing protein 17 (Homo sapiens, UniProt P78536); assay: Inhibition of human recombinant TACE using Mca-PLAQAV-Dpa-RSSSR-NH2 as substrate preincubated for 15 mins measured every 30 secs for 30 mins by fluorescence assay
Sequence (P78536 whole entry, the tested form may be a part): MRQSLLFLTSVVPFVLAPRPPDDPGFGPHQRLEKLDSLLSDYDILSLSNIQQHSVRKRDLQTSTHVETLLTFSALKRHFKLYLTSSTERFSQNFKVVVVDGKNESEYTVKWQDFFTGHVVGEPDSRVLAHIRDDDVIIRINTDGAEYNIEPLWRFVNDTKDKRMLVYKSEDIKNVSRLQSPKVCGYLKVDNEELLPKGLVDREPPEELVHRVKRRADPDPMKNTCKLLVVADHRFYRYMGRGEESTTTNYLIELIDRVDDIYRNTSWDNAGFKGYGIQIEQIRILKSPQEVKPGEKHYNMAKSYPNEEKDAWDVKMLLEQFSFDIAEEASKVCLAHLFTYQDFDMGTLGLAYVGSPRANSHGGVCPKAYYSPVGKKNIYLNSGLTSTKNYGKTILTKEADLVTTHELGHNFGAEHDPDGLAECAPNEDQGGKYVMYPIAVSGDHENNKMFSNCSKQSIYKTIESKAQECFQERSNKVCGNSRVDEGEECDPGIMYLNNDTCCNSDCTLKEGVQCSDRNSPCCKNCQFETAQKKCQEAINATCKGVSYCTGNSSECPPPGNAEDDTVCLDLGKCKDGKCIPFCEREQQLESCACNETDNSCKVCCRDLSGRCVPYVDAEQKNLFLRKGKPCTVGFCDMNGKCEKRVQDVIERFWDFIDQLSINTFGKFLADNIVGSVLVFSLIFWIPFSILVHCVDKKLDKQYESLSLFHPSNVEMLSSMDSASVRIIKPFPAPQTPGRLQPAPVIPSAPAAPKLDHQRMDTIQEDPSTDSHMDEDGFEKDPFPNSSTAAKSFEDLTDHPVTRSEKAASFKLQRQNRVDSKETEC

IC50 [µM] | Compound
> 10 | CCN(C(=O)c1ccc(CNc2nc(NCCN3CCN(C)CC3)nc(N3CCc4cc(OC)c(OC)cc4C3)n2)cc1)c1cccc(C)c1

target: T1, A disintegrin and metalloproteinase with thrombospondin motifs 5 (Homo sapiens, UniProt Q9UNA0); assay: Inhibition of ADAMTS5 (unknown origin) using WAAG-3R as substrate preincubated for 15 mins followed by substrate addition measured every 30 secs for 1 hr
T1 sequence (Q9UNA0 whole entry): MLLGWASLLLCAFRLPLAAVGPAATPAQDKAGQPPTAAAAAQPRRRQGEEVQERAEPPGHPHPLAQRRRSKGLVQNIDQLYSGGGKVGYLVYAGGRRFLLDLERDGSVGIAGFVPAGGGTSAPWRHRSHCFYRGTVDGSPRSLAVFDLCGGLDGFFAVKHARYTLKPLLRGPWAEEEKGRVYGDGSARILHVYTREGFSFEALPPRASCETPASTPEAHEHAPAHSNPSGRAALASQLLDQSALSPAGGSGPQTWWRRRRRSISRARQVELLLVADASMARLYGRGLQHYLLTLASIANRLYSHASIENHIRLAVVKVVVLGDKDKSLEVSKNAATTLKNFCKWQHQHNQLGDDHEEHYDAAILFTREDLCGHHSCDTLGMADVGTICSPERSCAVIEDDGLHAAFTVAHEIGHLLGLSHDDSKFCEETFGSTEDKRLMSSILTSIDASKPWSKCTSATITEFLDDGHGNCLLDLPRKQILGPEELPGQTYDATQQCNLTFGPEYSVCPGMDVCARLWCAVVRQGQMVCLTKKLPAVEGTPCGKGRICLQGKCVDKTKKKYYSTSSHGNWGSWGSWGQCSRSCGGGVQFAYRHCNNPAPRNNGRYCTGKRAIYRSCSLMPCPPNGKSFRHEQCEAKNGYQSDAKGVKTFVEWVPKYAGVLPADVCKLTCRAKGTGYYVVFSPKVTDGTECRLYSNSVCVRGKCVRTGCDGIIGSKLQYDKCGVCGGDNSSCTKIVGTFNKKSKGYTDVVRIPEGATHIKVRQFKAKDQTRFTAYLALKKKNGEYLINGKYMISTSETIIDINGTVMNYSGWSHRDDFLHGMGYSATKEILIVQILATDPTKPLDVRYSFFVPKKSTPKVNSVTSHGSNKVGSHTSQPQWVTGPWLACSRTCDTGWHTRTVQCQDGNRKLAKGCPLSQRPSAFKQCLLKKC

IC50 [µM] | Compound
> 10 | CCN(C(=O)c1ccc(CNc2nc(NCCN3CCN(C)CC3)nc(N3CCc4cc(OC)c(OC)cc4C3)n2)cc1)c1cccc(C)c1

target: T2, A disintegrin and metalloproteinase with thrombospondin motifs 13 (Homo sapiens, UniProt Q76LX8); assay: Inhibition of human recombinant ADAMTS13 using FRETSVWF73 as substrate by fluorescence assay
T2 sequence (Q76LX8 whole entry): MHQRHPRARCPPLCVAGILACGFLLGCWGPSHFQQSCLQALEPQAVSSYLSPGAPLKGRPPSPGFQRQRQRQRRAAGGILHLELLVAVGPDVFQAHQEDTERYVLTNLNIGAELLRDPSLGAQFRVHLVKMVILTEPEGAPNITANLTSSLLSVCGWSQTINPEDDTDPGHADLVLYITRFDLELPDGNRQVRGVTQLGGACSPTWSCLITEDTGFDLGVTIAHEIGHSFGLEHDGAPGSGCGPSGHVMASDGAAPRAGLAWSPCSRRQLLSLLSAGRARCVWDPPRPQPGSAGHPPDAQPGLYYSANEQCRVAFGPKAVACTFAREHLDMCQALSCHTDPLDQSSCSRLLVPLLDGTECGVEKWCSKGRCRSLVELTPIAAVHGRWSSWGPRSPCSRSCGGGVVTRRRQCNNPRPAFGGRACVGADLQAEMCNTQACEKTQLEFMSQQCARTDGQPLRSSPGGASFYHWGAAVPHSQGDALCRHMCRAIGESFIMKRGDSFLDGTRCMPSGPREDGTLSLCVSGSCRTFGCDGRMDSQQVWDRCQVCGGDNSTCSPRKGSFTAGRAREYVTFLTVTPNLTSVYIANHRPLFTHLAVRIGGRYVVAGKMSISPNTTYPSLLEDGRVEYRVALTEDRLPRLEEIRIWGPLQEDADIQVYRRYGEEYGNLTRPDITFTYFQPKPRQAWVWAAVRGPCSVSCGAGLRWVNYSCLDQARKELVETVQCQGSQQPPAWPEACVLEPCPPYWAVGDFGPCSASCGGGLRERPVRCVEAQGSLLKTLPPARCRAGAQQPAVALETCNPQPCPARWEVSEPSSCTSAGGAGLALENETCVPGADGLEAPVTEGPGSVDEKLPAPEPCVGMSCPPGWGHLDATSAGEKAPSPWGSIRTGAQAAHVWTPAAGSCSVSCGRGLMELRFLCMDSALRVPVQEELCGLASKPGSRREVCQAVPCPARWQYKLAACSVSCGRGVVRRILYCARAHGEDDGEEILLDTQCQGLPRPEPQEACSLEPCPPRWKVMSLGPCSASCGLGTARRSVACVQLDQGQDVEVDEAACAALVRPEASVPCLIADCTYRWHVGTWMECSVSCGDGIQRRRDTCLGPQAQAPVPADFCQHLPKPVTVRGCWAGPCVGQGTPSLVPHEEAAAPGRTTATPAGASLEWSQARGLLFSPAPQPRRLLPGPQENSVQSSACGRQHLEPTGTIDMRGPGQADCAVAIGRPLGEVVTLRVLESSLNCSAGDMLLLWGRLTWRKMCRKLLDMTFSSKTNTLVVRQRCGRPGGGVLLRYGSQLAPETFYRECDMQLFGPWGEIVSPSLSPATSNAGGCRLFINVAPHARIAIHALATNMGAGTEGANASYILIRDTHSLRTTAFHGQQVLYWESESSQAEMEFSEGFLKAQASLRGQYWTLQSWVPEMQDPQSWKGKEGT

IC50 [µM] | Compound
> 10 | CCN(C(=O)c1ccc(CNc2nc(NCCN3CCN(C)CC3)nc(N3CCc4cc(OC)c(OC)cc4C3)n2)cc1)c1cccc(C)c1

target: Collagenase 3 (Homo sapiens, UniProt P45452); assay: Inhibition of human recombinant MMP13 using 5-FAMTPGPLGL[Dap(DNP)]ARRK(5-TAMRA)-amide as substrate after 45 mins

IC50 [µM] | Compound
> 10 | CCN(C(=O)c1ccc(CNc2nc(NCCN3CCN(C)CC3)nc(N3CCc4cc(OC)c(OC)cc4C3)n2)cc1)c1cccc(C)c1

target: T3, A disintegrin and metalloproteinase with thrombospondin motifs 5 (Homo sapiens) (UniProt Q9UNA0); assay: Inhibition of ADAMTS5 (unknown origin) using WAAG-3R as substrate at 10 uM preincubated for 15 mins followed by substrate addition measured every 30 secs for 1 hr relative to control
T3 sequence (whole entry): T1 sequence (Q9UNA0 whole entry)

inhibition [%] | Compound
30 | CCN(C(=O)c1ccc(CNc2nc(NCCN3CCN(C)CC3)nc(N3CCc4cc(OC)c(OC)cc4C3)n2)cc1)c1cccc(C)c1

target: T4, A disintegrin and metalloproteinase with thrombospondin motifs 4 (Homo sapiens, UniProt O75173); assay: Inhibition of recombinant human ADAMTS4 (213 to 575 amino acid residues) using WAAG-3R as substrate preincubated for 15 mins followed by substrate addition measured every 30 secs for 1 hr
T4 sequence (O75173 whole entry): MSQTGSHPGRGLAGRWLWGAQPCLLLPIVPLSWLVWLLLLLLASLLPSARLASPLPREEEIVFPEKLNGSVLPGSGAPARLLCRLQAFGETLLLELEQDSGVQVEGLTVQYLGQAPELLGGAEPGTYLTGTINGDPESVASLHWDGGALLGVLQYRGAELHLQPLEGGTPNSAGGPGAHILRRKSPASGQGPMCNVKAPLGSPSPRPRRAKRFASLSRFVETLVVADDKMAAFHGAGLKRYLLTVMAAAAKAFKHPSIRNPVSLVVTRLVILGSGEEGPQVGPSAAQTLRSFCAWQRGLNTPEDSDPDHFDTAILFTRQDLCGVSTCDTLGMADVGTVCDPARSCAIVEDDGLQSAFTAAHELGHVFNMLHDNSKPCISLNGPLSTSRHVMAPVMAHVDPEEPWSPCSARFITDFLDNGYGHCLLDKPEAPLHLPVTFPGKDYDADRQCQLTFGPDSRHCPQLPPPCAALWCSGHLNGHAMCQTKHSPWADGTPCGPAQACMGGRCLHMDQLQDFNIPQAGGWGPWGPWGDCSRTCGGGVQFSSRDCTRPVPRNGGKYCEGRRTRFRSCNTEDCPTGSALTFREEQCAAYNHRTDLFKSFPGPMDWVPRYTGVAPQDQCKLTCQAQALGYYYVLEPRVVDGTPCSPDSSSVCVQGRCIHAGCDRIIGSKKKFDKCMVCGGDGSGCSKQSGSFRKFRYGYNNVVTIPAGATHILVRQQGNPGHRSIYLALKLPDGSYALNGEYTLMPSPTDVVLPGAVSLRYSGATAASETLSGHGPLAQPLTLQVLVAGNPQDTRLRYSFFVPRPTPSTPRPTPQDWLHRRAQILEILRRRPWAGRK

IC50 [µM] | Compound
0.03 | CCN(C(=O)c1ccc(CNc2nc(NC)nc(N3CCc4cc(OC)c(OC)cc4C3)n2)cc1)c1cccc(C)c1
0.022 | CCN(C(=O)c1ccc(CNc2nc(O)nc(N3CCc4cc(OC)c(OC)cc4C3)n2)cc1)c1cccc(C)c1
0.01 | CCN(C(=O)c1ccc(CNc2nc(NCCN3CCN(C)CC3)nc(N3CCc4cc(OC)c(OC)cc4C3)n2)cc1)c1cccc(C)c1
8.5 | CCN(C)C(=O)c1ccc(CNc2nc(N3CCN(C)CC3)nc(N3CCc4cc(OC)c(OC)cc4C3)n2)cc1
0.284 | CCN(C(=O)c1ccc(CNc2nc(NC3CCCCC3)nc(N3CCc4cc(OC)c(OC)cc4C3)n2)cc1)c1cccc(C)c1
0.06 | CCN(C(=O)c1ccc(CNc2nc(NC(C)C)nc(N3CCc4cc(OC)c(OC)cc4C3)n2)cc1)c1cccc(C)c1
0.158 | CCN(C(=O)c1ccc(CNc2ncnc(NCc3ccc(OC)c(OC)c3)n2)cc1)c1cccc(C)c1
0.181 | CCN(C(=O)c1ccc(CNc2nc(Nc3ccccc3)nc(N3CCc4cc(OC)c(OC)cc4C3)n2)cc1)c1cccc(C)c1
5.6 | CCN(C(=O)c1ccc(CNc2ncnc(N3Cc4ccccc4C3)n2)cc1)c1cccc(C)c1
> 10 | CCN(C(=O)c1ccc(CNc2ncnc(N3CCCCC3)n2)cc1)c1cccc(C)c1
0.37 | CCN(C(=O)c1ccc(CNc2ncnc(N3CCc4cc(F)ccc4C3)n2)cc1)c1cccc(C)c1
3 | CNC(=O)c1ccc(CNc2nc(NCCN3CCN(C)CC3)nc(N3CCc4cc(OC)c(OC)cc4C3)n2)cc1
0.064 | CCN(C)C(=O)c1ccc(CNc2nc(NCCN3CCN(C)CC3)nc(N3CCc4cc(OC)c(OC)cc4C3)n2)cc1
0.102 | CCN(C(=O)c1ccc(CNc2nc(Cl)nc(N3CCc4cc(OC)c(OC)cc4C3)n2)cc1)c1cccc(C)c1
5.5 | CCN(C)C(=O)c1ccc(CNc2nc(N3CCN(C)CC3)nc(N3CCc4ccccc4C3)n2)cc1
1.7 | CCN(C)C(=O)c1ccc(CNc2ncnc(N3CCc4ccccc4C3)n2)cc1
0.081 | CCN(C)C(=O)c1ccc(CNc2nc(NCCN(C)C)nc(N3CCc4cc(OC)c(OC)cc4C3)n2)cc1

IC50 [µM] | Compound
0.088 | CCN(C(=O)c1ccc(CNc2nc(NCC(=O)O)nc(N3CCc4cc(OC)c(OC)cc4C3)n2)cc1)c1cccc(C)c1
6.5 | CCN(C(=O)c1ccc(CNc2nc(NCCN3CCN(C)CC3)nc(N3CCCc4ccccc43)n2)cc1)c1cccc(C)c1
0.518 | COc1cc2c(cc1OC)CN(c1nc(NCCN3CCN(C)CC3)nc(NCc3ccc(C(=O)Nc4cccc(C)c4)cc3)n1)CC2
0.008 | CCN(C(=O)c1ccc(CNc2nc(NCCN(C)C)nc(N3CCc4ccccc4C3)n2)cc1)c1cccc(C)c1
3 | COc1cc2c(cc1OC)CN(c1nc(NCCN3CCN(C)CC3)nc(NCc3ccccc3)n1)CC2
0.06 | CCN(C(=O)c1ccc(CNc2nc(NCc3ccccc3)nc(N3CCc4cc(OC)c(OC)cc4C3)n2)cc1)c1cccc(C)c1
0.043 | CCN(C)C(=O)c1ccc(CNc2nc(NCCN(C)C)nc(N3CCc4ccccc4C3)n2)cc1
1.82 | CCN(C)C(=O)c1ccc(CNc2ncnc(N3CCc4cc(OC)c(OC)cc4C3)n2)cc1
0.063 | CCN(C(=O)c1ccc(CNc2ncnc(N3CCc4ccccc4C3)n2)cc1)c1cccc(C)c1
0.014 | CCN(C(=O)c1ccc(CNc2nc(NCCN(C)C)nc(N3CCc4cc(OC)c(OC)cc4C3)n2)cc1)c1cccc(C)c1
> 10 | COc1cc2c(cc1OC)CN(c1nc(NCCN3CCN(C)CC3)nc(NCc3ccc(C(=O)O)cc3)n1)CC2
0.023 | CCN(C(=O)c1ccc(CNc2ncnc(N3CCc4cc(OC)c(OC)cc4C3)n2)cc1)c1cccc(C)c1
0.006 | CCN(C(=O)c1ccc(CNc2nc(NCCN3CCN(C)CC3)nc(N3CCc4ccccc4C3)n2)cc1)c1cccc(C)c1
0.163 | CCN(C(=O)c1ccc(CNc2nc(NCCc3ccco3)nc(N3CCc4cc(OC)c(OC)cc4C3)n2)cc1)c1cccc(C)c1
0.061 | CCN(C(=O)c1ccc(CNc2nc(NCc3ccccc3)nc(N3CCc4ccccc4C3)n2)cc1)c1cccc(C)c1
0.333 | CCN(C(=O)c1ccc(CNc2ncnc(N3CCc4ccc(F)cc4C3)n2)cc1)c1cccc(C)c1
